For experiment [1], the system named is P. aeruginosa PAO1. Description: Antibiotic susceptibility (broth dilution in Muller-Hinton broth). It counts as cell-based, Pseudomonas aeruginosa. On the procedure: (§1) Antibiotic susceptibility. The susceptibilities of bacterial strains to gentamicin (Sigma) were determined by broth dilution method in Muller-Hinton broth (Kadurugamuwa, J. L. et al, 1993 Antimicrob. Agents Chemother. 37:715-721). The MICs for PAO1, 8803, D2C, and DH5α were 2, 128 (10), 1.0, and 1.0 μg/ml, respectively.
(Dilution methods test growth across graded concentrations, often in twofold steps.)

In experiment [2] the test system is P. aeruginosa 8803. The experiment is described as above. To be noted: 8803 (permeability-type gentamicin resistance). The experiment is classed as cell-based, Pseudomonas aeruginosa. On the procedure:
as §1

For a further experiment, the system named is Escherichia coli DH5α. The experiment is described as above. The experiment is classed as cell-based. The protocol: as §1
The test system of experiment [3] is Staphylococcus aureus Newman D2C. The experiment is described as above. It counts as cell-based. The protocol:
as §1

Experiment [4] has as its system P. aeruginosa strain H 103. Description: Antibiotic susceptibility test (MIC of gentamicin by dilution in MHB). It counts as cell-based, Pseudomonas aeruginosa. As to conditions: strain H 103, dilution in MHB. The protocol:
(§2) Antibiotic susceptibility test. The Minimum Inhibitory Concentrations (MICs) of gentamicin were determined by dilution in MHB. The MICs for strains H 103 and ATCC 19660 were 2 and 2.5 μg/ml, respectively.

Experiment [5] has as its system P. aeruginosa strain ATCC 19660. Described as above. The experiment is classed as cell-based, Pseudomonas aeruginosa. To be noted: strain ATCC 19660, dilution in MHB. The protocol:
as §2

Experiment [6] concerns intracellular S. flexneri. Description: g-MV effect on intracellular S. flexneri in infected human colonic epithelial cells. The experiment is classed as cell-based, Shigella flexneri. As to conditions: FIG. 17. On the procedure: Incubation of g-MVs (25 μg MV protein/25 cm^2 cover slip) with S. flexneri infected human colonic epithelial cells (10^7 CFU/25 cm^2 cover slip) (Kadurugamuwa et al, 1991 Infect. Immun. 59:3464-3471) inhibited the multiplication of intracellular bacteria by approximately 88% in the first hour of incubation (FIG. 17). […] Gentamicin could only enter these cells because it was packaged into a bilayered MV which could […] with the otherwise impermeable membrane and liberate its contents into the cytoplasm. Soluble antibiotic had no effect on growth of intracellular bacteria confirming the impermeability of eucaryotic cell membrane to the antibiotic (FIG. 17). […] The small effect of n-MVs on intracellular bacteria was presumably due to murein hydrolases in n-MVs.

The test system of experiment [7] is P. aeruginosa PAO1. Description: Bactericidal activity (viable counting 0-5 h). The experiment is classed as cell-based, Pseudomonas aeruginosa. As to conditions: MVs 100 μg protein/ml, gentamicin 2.5×MIC, FIG. 23(c). The protocol: (§3) Bacteriolytic activity. […] Exponential growth phase cultures grown in TSB were diluted in fresh TSB to produce a bacterial suspension of 10^8 CFU/ml.

In experiment [8] the test system is P. aeruginosa 8803. Briefly: Bactericidal activity (viable counting 0-5 h). It counts as cell-based, Pseudomonas aeruginosa. To be noted: MVs 100 μg protein/ml, gentamicin 100 μg/ml, FIG. 23(d). The protocol: as §3

The values below come from patent publication US6916478B2, “Vaccines and pharmaceutical compositions using membrane vesicles of microorganisms, and methods for preparing same” (priority 1995, dated 2005).

The term MIC denotes the lowest concentration that inhibits growth of the organism. Higher therefore signals a need for much substance. Take gentamicin: the minimal inhibitory concentration (MIC) with P. aeruginosa PAO1 [1] is 2 µg/mL; with P. aeruginosa 8803 [2], 128 µg/mL; in the experiment on Escherichia coli DH5α it was 1.0 µg/mL; in experiment [3], 1.0 µg/mL. The “Minimum Inhibitory Concentration (MIC)” value in experiment [4] worked out at 2 µg/mL; in [5] it was 2.5 µg/mL. Also, in experiment [6], the “effect on growth of intracellular bacteria” value is reported as “no effect”. For the same substance, the “loss of viability of P. aeruginosa PAO1” value with P. aeruginosa PAO1 [7] was “exquisitely sensitive”. The “lytic effect on P. aeruginosa 8803 culture” value in the experiment with P. aeruginosa 8803 [8] was “(almost) direct correspondence between the control culture and the culture subjected to soluble gentamicin”.
